# ± gives the expanded uncertainty stated by the source.
# Details: 101 kPa, Liquid, Voltage change across transformer (no electrode)
electrical conductivity (293.15 K) [S/m],electrical conductivity (303.15 K) [S/m],electrical conductivity (313.15 K) [S/m],electrical conductivity (323.15 K) [S/m],Structure (SMILES)
0.181 ± 0.0036,0.321 ± 0.006,0.519 ± 0.01,0.785 ± 0.016,CCCC[n+]1ccccc1.F[B-](F)(F)F [1-butylpyridinium tetrafluoroborate]
0.1318 ± 0.0013,0.254 ± 0.003,0.439 ± 0.004,0.687 ± 0.007,CCCC[n+]1ccc(C)cc1.F[B-](F)(F)F [1-butyl-4-methylpyridinium tetrafluoroborate]
0.155 ± 0.0016,0.281 ± 0.003,0.461 ± 0.005,0.704 ± 0.007,CCCC[n+]1cccc(C)c1.F[B-](F)(F)F [1-butyl-3-methylpyridinium tetrafluoroborate]

# — the NIST ThermoML archive (doi:10.1021/je301347v)
